Test: xn = mol fraction of the nth substance listed
Conditions: 101 kPa, Liquid; for speed of sound: Single path-length method

CCc1ccccc1 [ethylbenzene] + COC(C)(C)C
Conditions | mass density, 315.65 K [kg/m3] | mass density, 318.15 K [kg/m3] | mass density, 320.65 K [kg/m3] | mass density, 323.15 K [kg/m3] | speed of sound, 315.65 K [m/s] | speed of sound, 318.15 K [m/s] | speed of sound, 320.65 K [m/s] | speed of sound, 323.15 K [m/s]
x2 = 0 | 846.964 | 844.741 | 842.518 | 840.306 | – | 1236.1 | 1226.1 | 1216.3
x2 = 0.046 | 841.648 | 839.413 | 837.173 | 834.949 | – | 1224.5 | 1214.5 | 1204.7
x2 = 0.106 | 834.515 | 832.261 | 830.003 | 827.754 | – | 1208.7 | 1198.6 | 1188.8
x2 = 0.212 | 821.909 | 819.612 | 817.315 | 815.028 | – | 1180.5 | 1170.4 | 1160.5
x2 = 0.299 | 811.155 | 808.784 | 806.474 | 804.174 | – | 1155.9 | 1146 | 1136.3
x2 = 0.402 | 798.107 | 795.73 | 793.356 | 791.012 | – | 1127 | 1116.8 | 1106.9
x2 = 0.503 | 786.547 | 784.128 | 781.711 | 779.302 | 1111.9 | 1101.4 | 1091 | 1080.8
x2 = 0.6 | 772.257 | 769.777 | 767.333 | 764.898 | 1079.6 | 1068.9 | 1058.7 | 1048.8
x2 = 0.701 | 758.651 | 756.122 | 753.581 | 751.042 | 1050 | 1039.2 | 1028.4 | 1017.8
x2 = 0.822 | 741.744 | 739.136 | 736.516 | 733.902 | 1012.4 | 1001.4 | 990.46 | 979.73
x2 = 0.899 | 730.538 | 727.875 | 725.199 | 722.521 | 987.36 | 976.23 | 965.11 | 954.17
x2 = 0.948 | 723.249 | 720.551 | 717.839 | 715.125 | 971.33 | 960.13 | 948.99 | 938
